Measurements published in ChEMBL document CHEMBL3286266, “Development of novel benzomorpholine class of diacylglycerol acyltransferase I inhibitors” (ACS Med Chem Lett, 2014).
Values after ≈ are worked out from the molar mass of the structure shown. Active and inactive are the calls of the source. The rule behind the calls is not given here.

How the values were obtained:
[1] = target: T1, Sterol O-acyltransferase 2 (Homo sapiens, UniProt O75908); assay: Inhibition of human ACAT2 expressed in Sf9 insect cells using [14C]-oleoyl-CoA by scintillation counting analysis
T1 sequence (O75908 whole entry): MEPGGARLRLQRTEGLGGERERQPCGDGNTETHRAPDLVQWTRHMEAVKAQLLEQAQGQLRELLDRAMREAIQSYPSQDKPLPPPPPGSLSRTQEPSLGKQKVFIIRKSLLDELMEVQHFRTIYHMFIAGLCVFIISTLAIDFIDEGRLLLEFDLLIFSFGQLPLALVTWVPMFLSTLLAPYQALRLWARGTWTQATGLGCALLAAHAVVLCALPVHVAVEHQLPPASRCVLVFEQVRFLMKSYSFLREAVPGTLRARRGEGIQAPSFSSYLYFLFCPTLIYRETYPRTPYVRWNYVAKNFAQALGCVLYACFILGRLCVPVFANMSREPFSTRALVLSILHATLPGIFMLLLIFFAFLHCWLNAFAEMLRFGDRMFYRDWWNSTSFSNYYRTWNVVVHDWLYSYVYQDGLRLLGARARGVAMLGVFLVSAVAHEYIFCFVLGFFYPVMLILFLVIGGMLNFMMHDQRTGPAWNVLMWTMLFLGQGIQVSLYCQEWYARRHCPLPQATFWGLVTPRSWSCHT

Mus musculus [2] = assay: Reduction in triglycerides level in mouse at 3 mg/kg, po after 2 hrs by postprandial triglyceride assay; type: functional
[3] = Permeability in human Caco2 cells; type: ADME, cell-based; details: Caco-2, read-out: permeability
[4] = target: T2, Diacylglycerol O-acyltransferase 2 (Homo sapiens) (UniProt Q96PD7); assay: Inhibition of human DGAT2 expressed in Sf9 insect cells using 1,2-dioleoyl-sn-glycerol and [14C]-palmitoyl-CoA substrate by scintillation counting analysis
T2 sequence (whole entry): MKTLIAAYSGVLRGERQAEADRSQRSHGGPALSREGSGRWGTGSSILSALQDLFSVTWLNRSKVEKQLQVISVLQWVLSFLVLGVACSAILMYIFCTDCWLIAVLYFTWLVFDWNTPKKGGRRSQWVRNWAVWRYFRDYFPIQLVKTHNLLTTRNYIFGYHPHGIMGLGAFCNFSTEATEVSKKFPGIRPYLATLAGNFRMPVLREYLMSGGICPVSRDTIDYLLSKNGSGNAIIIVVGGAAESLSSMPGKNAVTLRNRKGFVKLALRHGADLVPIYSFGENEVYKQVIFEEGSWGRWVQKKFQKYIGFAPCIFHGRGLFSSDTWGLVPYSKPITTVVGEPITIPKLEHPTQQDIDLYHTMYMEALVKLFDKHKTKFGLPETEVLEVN

[5] = target: T3, Diacylglycerol O-acyltransferase 1 (Mus musculus, UniProt Q9Z2A7); assay: Inhibition of mouse DGAT1 expressed in Sf9 insect cells using 1,2-dioleoyl-sn-glycerol and [14C]-palmitoyl-CoA substrate by scintillation counting analysis
T3 sequence (Q9Z2A7 whole entry): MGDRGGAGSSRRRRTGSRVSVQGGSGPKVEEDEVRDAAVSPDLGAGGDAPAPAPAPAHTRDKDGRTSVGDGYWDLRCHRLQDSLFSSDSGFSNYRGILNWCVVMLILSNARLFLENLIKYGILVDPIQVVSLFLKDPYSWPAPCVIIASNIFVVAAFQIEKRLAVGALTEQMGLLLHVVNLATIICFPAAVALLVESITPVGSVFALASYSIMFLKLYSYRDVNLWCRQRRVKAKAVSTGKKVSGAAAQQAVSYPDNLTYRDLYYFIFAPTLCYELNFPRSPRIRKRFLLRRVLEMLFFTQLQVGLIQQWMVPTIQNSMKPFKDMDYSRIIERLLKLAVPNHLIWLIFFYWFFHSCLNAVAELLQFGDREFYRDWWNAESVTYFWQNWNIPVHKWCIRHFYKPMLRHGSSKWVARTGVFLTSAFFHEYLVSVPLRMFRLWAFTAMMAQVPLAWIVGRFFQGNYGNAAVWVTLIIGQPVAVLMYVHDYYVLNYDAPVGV

Mus musculus [6] = assay: Reduction in triglycerides level in mouse at 10 mg/kg, po after 2 hrs by postprandial triglyceride assay; type: functional
[7] = AUC in rat at 10 mg/kg; type: ADME, organism-based; design: dose 10 mg/kg; details: plasma
[8] = Solubility of the compound; type: physicochemical

IC50 [1]: 9.6 µM
Papp [3]: 23.9 ×10⁻⁶ cm/s
inhibition [4]: inactive
IC50 [5]: 0.035 µM
AUC [7]: 23 µM·h
solubility [8]: 100 µM (≈ 55.7 µg/mL)
Compound: O=C(O)C[C@H]1CC[C@H](c2ccc(-c3ccc4c(c3)OCCN4C(=O)Nc3ccc(F)cc3C(F)(F)F)cc2)CC1
inhibition in vivo at 3 mg/kg (Mus musculus [2]): 59%
inhibition in vivo at 10 mg/kg (Mus musculus [6]): 91%
